According to the NIST ThermoML archive (doi:10.1016/j.tca.2015.08.013):

Settings: for surface tension liquid-gas: Drop volume; for mass density / kinematic viscosity / speed of sound / vapor or sublimation pressure: Liquid; for mass density: Vibrating tube method; for kinematic viscosity / speed of sound: 101.33 kPa; for kinematic viscosity: Capillary tube (Ostwald / Ubbelohde) method; for speed of sound: Sing-around technique in a fixed-path interferometer; for vapor or sublimation pressure: Ebulliometric method (Recirculating still)

Cc1ccco1 [2-methylfuran]
Settings	kinematic viscosity [m2/s]	speed of sound [m/s]	surface tension liquid-gas [mN/m]	vapor or sublimation pressure [kPa]
278.15 K	5.39e-07	1254.8	27.02	–
280.65 K	5.23e-07	1243.4	26.6	–
283.15 K	5.08e-07	1231.9	26.29	–
285.37 K	–	–	–	12.57
285.65 K	4.93e-07	1220.4	26	–
286.86 K	–	–	–	13.65
288.15 K	4.79e-07	1209	25.69	–
289.1 K	–	–	–	15.22
290.65 K	4.66e-07	1197.5	25.26	–
291.81 K	–	–	–	17.26
293.15 K	4.55e-07	1186	24.98	–
293.4 K	–	–	–	18.52
294.3 K	–	–	–	19.48
295.65 K	4.46e-07	1174.6	24.66	–
295.86 K	–	–	–	20.63
297.45 K	–	–	–	22.34
298.15 K	4.38e-07	1163.2	24.34	–
299.76 K	–	–	–	24.68
300.65 K	4.29e-07	1151.9	24.03	–
300.83 K	–	–	–	25.8
303.15 K	4.2e-07	1140.6	23.71	–
303.45 K	–	–	–	28.68
305.13 K	–	–	–	30.8
305.65 K	4.11e-07	1129.3	23.41	–
307.42 K	–	–	–	33.94
308.15 K	4.01e-07	1118.1	23.06	–

Settings	mass density [kg/m3]
278.15 K, 99 kPa	934.034
280.65 K, 99 kPa	931.092
283.15 K, 99 kPa	928.13
283.15 K, 100 kPa	928.13
283.15 K, 2500 kPa	930.56
283.15 K, 5000 kPa	932.75
283.15 K, 7500 kPa	935.07
283.15 K, 10000 kPa	937.27
283.15 K, 20000 kPa	945.74
283.15 K, 30000 kPa	953.37
283.15 K, 40000 kPa	960.5
283.15 K, 50000 kPa	967.21
283.15 K, 60000 kPa	973.54
285.65 K, 99 kPa	925.161
288.15 K, 99 kPa	922.181
288.15 K, 100 kPa	922.18
288.15 K, 2500 kPa	924.54
288.15 K, 5000 kPa	926.97
288.15 K, 7500 kPa	929.48
288.15 K, 10000 kPa	931.62
288.15 K, 20000 kPa	940.4
288.15 K, 30000 kPa	948.28
288.15 K, 40000 kPa	955.59
288.15 K, 50000 kPa	962.35
288.15 K, 60000 kPa	968.84
290.65 K, 99 kPa	919.197
293.15 K, 99 kPa	916.198
293.15 K, 100 kPa	916.2
293.15 K, 2500 kPa	918.63
293.15 K, 5000 kPa	921.3
293.15 K, 7500 kPa	923.72
293.15 K, 10000 kPa	926.09
293.15 K, 20000 kPa	934.94
293.15 K, 30000 kPa	943.1
293.15 K, 40000 kPa	950.59
293.15 K, 50000 kPa	957.61
293.15 K, 60000 kPa	964.27
295.65 K, 99 kPa	913.193
298.15 K, 99 kPa	910.179
298.15 K, 100 kPa	910.18
298.15 K, 2500 kPa	912.71
298.15 K, 5000 kPa	915.3
298.15 K, 7500 kPa	918
298.15 K, 10000 kPa	920.32
298.15 K, 20000 kPa	929.72
298.15 K, 30000 kPa	937.91
298.15 K, 40000 kPa	945.67
298.15 K, 50000 kPa	952.89
298.15 K, 60000 kPa	959.58
300.65 K, 99 kPa	907.155
303.15 K, 99 kPa	904.121
303.15 K, 100 kPa	904.12
303.15 K, 2500 kPa	906.73
303.15 K, 5000 kPa	909.46
303.15 K, 7500 kPa	912.07
303.15 K, 10000 kPa	914.76
303.15 K, 20000 kPa	924.23
303.15 K, 30000 kPa	932.75
303.15 K, 40000 kPa	940.68
303.15 K, 50000 kPa	948.03
303.15 K, 60000 kPa	955.1
305.65 K, 99 kPa	901.077
308.15 K, 99 kPa	898.02
308.15 K, 100 kPa	898.02
308.15 K, 2500 kPa	900.91
308.15 K, 5000 kPa	903.72
308.15 K, 7500 kPa	906.43
308.15 K, 10000 kPa	909.05
308.15 K, 20000 kPa	918.85
308.15 K, 30000 kPa	927.65
308.15 K, 40000 kPa	935.68
308.15 K, 50000 kPa	943.2
308.15 K, 60000 kPa	950.35
